Reference: US10005769B2, “2,3-dihydrobenzofuran-5YL compounds as DYRK kinase inhibitors” (4SC DISCOVERY GMBH, priority 2013, dated 2018)
pIC50: −log10 of the molar value.

What was measured:
[1] = molecular target: DYRK1B (Homo sapiens (Human), UniProt Q9Y463); experiment: DYRK1B Kinase Assay (33P ATP, DYRKtide substrate, Reaction Biology Corp.); assay type: biochemical; conditions: 0.3 nM DYRK1B, 20 μM DYRKtide, 10 μM ATP, 25° C., 120 min
Experimental: The assay was carried out by Reaction Biology Corp., […], Pa., USA according to specifications by Reaction Biology Corp., as detailed herein below and further described in Anastassiadis et al., Nature Biotechnology, 29 (2011) 1039-1045. The substrate DYRKtide (synthetic peptide RRRFRPASPLRGPPK) was dissolved in freshly prepared Base Reaction Buffer (20 mM Hepes (pH 7.5), 10 mM MgCl2, 1 mM EGTA, 0.02% Brij35, 0.02 mg/ml BSA, 0.1 mM Na3VO4, 2 mM DTT, 1% DMSO) at a concentration of 20 μM. DYRK1B was added to the substrate solution in a concentration of 0.3 nM and gently mixed. Dilution series of the compounds according to the present invention in DMSO were prepared. Each dilution was added to a batch of the above reaction mix, followed 20 min later by addition of a mixture of ATP and ^33P ATP (specific activity 0.01 μCi/μl final) to a final concentration of 10 μM. Reactions were carried out at 25° C. for 120 min, followed by spotting the reactions onto P81 ion exchange filter paper. Unbound phosphate was removed by extensive washing of the filters in 0.75% phosphoric acid. […] IC50 values and curve fits were obtained using Prism (Graph Pad Software). DYRK1B used in the above assays are further described in the below table: [table] Exemplary compound dilution series, final concentrations of compound in the assay vessel; the individual concentrations and the range of concentrations covered by the dilution series may differ for each compound, as long as enough data points are obtained to determine the compound's IC50: DYRK 1[…].

[2] = test system: Hedgehog signaling pathway (Gli Reporter - NIH3T3 cell line); experiment: Hedgehog Reporter Assay (Gli-Reporter, luciferase, mSHH stimulated); assay type: cell-based, murine; conditions: Mus musculus; Gli Reporter NIH3T3 cells, 1 μg/ml mSHH, 24 h
Experimental: In order to investigate the potency of test compounds to inhibit the Hedgehog signaling pathway, a Gli-Reporter assay was performed. The “Gli Reporter-NIH3T3” cell line contains the firefly luciferase gene under the control of Gli responsive elements stably integrated into murine NIH3T3 cells (cells purchased from AMS Biotechnology ltd., 184 Milton Park, Abingdon OX14 4SE, U.K.). The luciferase expression correlates with activation of the hedgehog signaling pathway. This cell line is validated for its response to stimulation with murine Sonic Hedgehog and to treatment with inhibitors of the hedgehog signaling pathway. A multiplexed viability assay was used to discriminate inhibition on the pathway activity from cell toxicity. Growth Medium: DMEM (Dulbecco's Modified Eagle Medium); 10% Fetal Calf Serum; 1% Penicillin/Streptomycin; 500 μg/ml Geneticin (G418 Stock 50 mg/ml). Assay Medium: Opti-MEM® Reduced Serum Medium; 0.5% Calf Serum; 1% non-essential amino acids; 1 mM Na-pyruvate; 10 mM HEPES; 1% Penicillin/Streptomycin. 25,000 cells per well were seeded into a white 96 well plate in 100 μl growth medium and incubated over night at 37° C. and 5% CO2. After removing the supernatant the test compounds and controls were added in different concentrations in a final volume of 45 μl and incubated for 1 h at 37° C. and 5% CO2. For the stimulation of the Hedgehog pathway 5 μl of 10 μg/ml concentrated murine SHH (or mSHH; murine sonic hedgehog protein) was added to the cells. A final concentration of 1 μg/ml mSHH and 0.1% DMSO was reached per well. After incubation for 24 h at 37° C. the cells were investigated for viability and reporter activity. Viability: For the determination of the viability of the treated cells the CellTiter-FluorTM Kit from Promega comprising the fluorogenic, cell-permeant peptide substrate ([…]-aminofluorocoumarin GF-AFC was used. Roughly, only proteases of viable cells are able to cleave the GF-AFC. By this cleavage the fluorescent AFC is set free and can be detected in a fluorescence reader. For this assay 10 μl of GF-AFC substrate (CellTiter-FluorTM, Promega #G6082) was diluted in 2 ml assay buffer from the CellTiter-FluorTM Kit and 10 μl of this dilution was added per well to the cells and incubated for 30 min at 37° C. The fluorescence was measured with an excitation of 380-400 nm and an emission of 505 nm. Reporter activity: The firefly luciferase reporter activity was detected with the ONE-GloTM Luciferase Assay System from Promega. For this assay 50 μl ONE-Glo luciferase reagent (Promega #E6120, contains cell lysis buffer and luciferin) was added to each well and incubated at room temperature for 5 min. Luminescence was detected in a plate reader and served as a measure for reporter activity.

[3] = test system: L3.6pl human metastatic pancreatic adenocarcinoma cells; experiment: Xenograft assay with L3.6pl cancer cells; assay type: in vivo, Foxn1nu/nu nude mice; conditions: 100 mg/kg/day p.o. daily
Experimental: The x-axis reflects the time [in days], while the y-axis reflects the tumor volume [in mm^3]. A xenograft assay with L3.6pl cancer cells was prepared as follows: 1×10^5 L3.6pl (Bruns et al., 1999) human metastatic pancreatic adenocarcinoma cells in 25% Matrigel (BD Biosciences, NJ, USA) were injected subcutaneously into the lower flanks of Foxn1nu/nu nude mice (Charles River Laboratories, USA). The compound of example 5 was administered p.o. daily with 100 mg/kg/day, dissolved in a mixture of 20% Glycofurol 75, 20% Oleic acid and 60% Olive oil; administration was started at the same day of injection of tumor cells. As a negative control, separate aminals were administered solvent vehicle without active compound. The tumor volume was measured with a caliper and calculated according to the formula [4/3×π×(length/2)×(width/2)×(height/2). Results are shown in FIG. 1, the p value was <0.01.

Chain of DYRK1B (Q9Y463 whole entry): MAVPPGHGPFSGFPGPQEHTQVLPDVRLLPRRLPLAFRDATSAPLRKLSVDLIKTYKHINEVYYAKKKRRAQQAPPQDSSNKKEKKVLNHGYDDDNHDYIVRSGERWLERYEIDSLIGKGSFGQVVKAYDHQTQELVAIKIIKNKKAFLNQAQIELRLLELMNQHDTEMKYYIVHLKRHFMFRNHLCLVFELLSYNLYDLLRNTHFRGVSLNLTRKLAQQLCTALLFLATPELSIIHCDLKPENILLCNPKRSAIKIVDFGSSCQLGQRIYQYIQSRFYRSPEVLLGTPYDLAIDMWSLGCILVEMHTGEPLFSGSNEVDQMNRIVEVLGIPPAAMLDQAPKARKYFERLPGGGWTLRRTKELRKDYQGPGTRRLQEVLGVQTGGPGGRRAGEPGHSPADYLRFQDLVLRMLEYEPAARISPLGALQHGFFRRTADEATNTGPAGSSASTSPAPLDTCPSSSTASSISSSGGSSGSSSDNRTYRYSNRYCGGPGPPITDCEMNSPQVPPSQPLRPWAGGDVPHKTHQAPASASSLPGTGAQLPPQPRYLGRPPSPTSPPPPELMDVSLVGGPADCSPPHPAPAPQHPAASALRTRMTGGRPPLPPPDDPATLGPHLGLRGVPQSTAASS

In the case of O=C(Nc1nnc(C(=O)N2CCCC2)[nH]1)c1csc(-c2ccc3c(c2)CCO3)n1 [Compound 28, 2-(2,3-Dihydrobenzofuran-5-yl)-N-(5-(pyrrolidine-1-carbonyl)-4H-1,2,4-triazol-3-yl)thiazole-4-carboxamide], the pIC50 [1] was 7.33 and the pIC50 [2] was 5.00 to 5.52.

CCN1CCN(C(=O)c2ccc3[nH]c(NC(=O)c4csc(-c5ccc6c(c5)CCO6)n4)nc3c2)CC1 [Compound 47, 2-(2,3-Dihydrobenzofuran-5-yl)-N-(5-(4-ethylpiperazine-1-carbonyl)-1H-benzo[d]imidazol-2-yl)thiazole-4-carboxamide] was tested, and the pIC50 [1] was 8.66 and the pIC50 [2] was > 6.00.

For CS(=O)(=O)c1ccc2[nH]c(NC(=O)c3csc(-c4ccc5c(c4)CCO5)n3)nc2c1 [Compound 3, 2-(2,3-Dihydrobenzofuran-5-yl)-N-(5-(methylsulfonyl)-1H-benzo[d]imidazol-2-yl)thiazole-4-carboxamide], the pIC50 [1] was 8.83 and the pIC50 [2] was > 6.00.

In the case of CN1CCN(c2ccc3nc(NC(=O)c4csc(-c5ccc6c(c5)CCO6)n4)sc3c2)CC1 [Compound 41, 2-(2,3-Dihydrobenzofuran-5-yl)-N-(6-(4-methylpiperazin-1-yl)benzo[d]thiazol-2-yl)thiazole-4-carboxamide], the pIC50 [1] was 7.71 and the pIC50 [2] was 5.00 to 5.52.

For O=C(Nc1nc2cc(Cl)ccc2[nH]1)c1csc(-c2ccc3c(c2)CCO3)n1 [Compound 6, N-(5-Chloro-1H-benzo[d]imidazol-2-yl)-2-(2,3-dihydrobenzofuran-5-yl)thiazole-4-carboxamide], the pIC50 [1] was 8.72 and the pIC50 [2] was 5.52 to 6.00.

With O=C(Nc1nc2cc(Cl)c(F)cc2[nH]1)c1csc(-c2ccc3c(c2)CCO3)n1 [Compound 2, N-(5-Chloro-6-fluoro-1H-benzo[d]imidazol-2-yl)-2-(2,3-dihydrobenzofuran-5-yl)thiazole-4-carboxamide] the pIC50 [1] was 7.32 and the pIC50 [2] was 5.52 to 6.00.

O=C(Nc1ccccn1)c1csc(-c2ccc3c(c2)CCO3)n1 [Compound 17, 2-(2,3-Dihydrobenzofuran-5-yl)-N-(pyridin-2-yl)thiazole-4-carboxamide] showed a pIC50 [1] of 7.53 and a pIC50 [2] of 5.00 to 5.52.

Molecule O=C(Nc1nc(-c2cccnc2)n[nH]1)c1csc(-c2ccc3c(c2)CCO3)n1 [Compound 45, 2-(2,3-Dihydrobenzofuran-5-yl)-N-(3-(pyridin-3-yl)-1H-1,2,4-triazol-5-yl)thiazole-4-carboxamide] has a pIC50 [1] of 8.55 and a pIC50 [2] of 5.52 to 6.00.

With CN(C)C(=O)c1n[nH]c(NC(=O)c2csc(-c3ccc4c(c3)CCO4)n2)n1 [Compound 29, 2-(2,3-Dihydrobenzofuran-5-yl)-N-(5-(dimethylcarbamoyl)-4H-1,2,4-triazol-3-yl)thiazole-4-carboxamide] the pIC50 [1] was 7.14 and the pIC50 [2] was 5.00 to 5.52.

With O=C(Nc1nc2cc(C(F)(F)F)ccc2[nH]1)c1csc(-c2ccc3c(c2)CCO3)n1 [Compound 5, 2-(2,3-Dihydrobenzofuran-5-yl)-N-(5-(trifluoromethyl)-1H-benzo[d]imidazol-2-yl)thiazole-4-carboxamide] the pIC50 [1] was 7.04, the pIC50 [2] was 5.52 to 6.00 and the “animals' weight over the course of the experiment” value [3] was “essentially unchanged”.

Work on COc1ccc2[nH]c(NC(=O)c3csc(-c4ccc5c(c4)CCO5)n3)nc2c1 [Compound 4, 2-(2,3-Dihydrobenzofuran-5-yl)-N-(5-methoxy-1H-benzo[d]imidazol-2-yl)thiazole-4-carboxamide] yielded a pIC50 [1] of 7.86 and a pIC50 [2] of 5.00 to 5.52.

For Cc1n[nH]c(NC(=O)c2csc(-c3ccc4c(c3)CCO4)n2)n1 [Compound 44, 2-(2,3-Dihydrobenzofuran-5-yl)-N-(3-methyl-1H-1,2,4-triazol-5-yl)thiazole-4-carboxamide], the pIC50 [1] was 7.22 and the pIC50 [2] was 5.00 to 5.52.

O=C(Nc1nc2cc(C(=O)N3CCOCC3)ccc2[nH]1)c1csc(-c2ccc3c(c2)CCO3)n1 [Compound 10, 2-(2,3-Dihydrobenzofuran-5-yl)-N-(5-(morpholine-4-carbonyl)-1H-benzo[d]imidazol-2-yl)thiazole-4-carboxamide] was tested, and the pIC50 [1] was 8.43 and the pIC50 [2] was > 6.00.

N#Cc1ccc2[nH]c(NC(=O)c3csc(-c4ccc5c(c4)CCO5)n3)nc2c1 [Compound 1, N-(5-Cyano-1H-benzo[d]imidazol-2-yl)-2-(2,3-dihydrobenzofuran-5-yl)thiazole-4-carboxamide] gave a pIC50 [1] of 8.86 and a pIC50 [2] of 5.52 to 6.00.

In the case of O=C(Nc1nc2cc(C(=O)N3CCN(CC4CCCO4)CC3)ccc2[nH]1)c1csc(-c2ccc3c(c2)CCO3)n1 (stereo not drawn) [Compound 8, 2-(2,3-Dihydrobenzofuran-5-yl)-N-(5-(4-((tetrahydrofuran-2-yl)methyl)piperazine-1-carbonyl)-1H-benzo[d]imidazol-2-yl)thiazole-4-carboxamide], the pIC50 [1] was 8.51 and the pIC50 [2] was > 6.00.

O=C(Nc1nc2c(C(F)(F)F)cccc2[nH]1)c1csc(-c2ccc3c(c2)CCO3)n1 [Compound 12, 2-(2,3-Dihydrobenzofuran-5-yl)-N-(4-(trifluoromethyl)-1H-benzo[d]imidazol-2-yl)thiazole-4-carboxamide] showed a pIC50 [1] of 6.81 and a pIC50 [2] of 5.00 to 5.52.

COc1cccc(-c2c[nH]c(NC(=O)c3csc(-c4ccc5c(c4)CCO5)n3)n2)c1 [Compound 13, 2-(2,3-Dihydrobenzofuran-5-yl)-N-(4-(3-methoxyphenyl)-1H-imidazol-2-yl)thiazole-4-carboxamide] gave a pIC50 [1] of 6.95 and a pIC50 [2] of 5.52 to 6.00.

With CCOC(=O)c1ccc2[nH]c(NC(=O)c3csc(-c4ccc5c(c4)CCO5)n3)nc2c1 [Compound 9, Ethyl 2-(2-(2,3-dihydrobenzofuran-5-yl)thiazole-4-carboxamido)-1H-benzo[d]imidazole-5-carboxylate] the pIC50 [1] was 8.44 and the pIC50 [2] was > 6.00.

Work on CNC(=O)c1n[nH]c(NC(=O)c2csc(-c3ccc4c(c3)CCO4)n2)n1 [Compound 19, 2-(2,3-Dihydrobenzofuran-5-yl)-N-(3-(methylcarbamoyl)-1H-1,2,4-triazol-5-yl)thiazole-4-carboxamide] yielded a pIC50 [1] of 8.01 and a pIC50 [2] of 5.52 to 6.00.
